{
  "source": "paper PMC11219860",
  "about": "“A chemogenetic approach for dopamine imaging with tunable sensitivity” (Nature Communications, 2024)",
  "key": {"NAc DRD1-MSNs": {"system": "NAc DRD1-MSNs", "assay": "Footshock-induced NAc DRD1-MSN activity (jGCaMP8m photometry)", "conditions": "DETQ 10 mg/kg; SCH-23390 0.1 mg/kg i.p.", "protocol": "Cue-reward paradigm (NAc recordings) was carried out in an operant chamber within a sound-attenuating box with low red light illumination (30 Lux). […] During the next session mice were trained to initiate reward delivery via licking. […] During expert sessions CS-US pairings were repeated 20 times per session ( ~ 30 min for each session). Mice underwent a total of 12 sessions for cue-reward learning. 10 minutes before each session drugs were injected i.p. […] The rewards were delivered from 10 to 40 min post vehicle or DETQ injection. Chambers and lick ports were sanitized with ethanol between mice. For all sessions, lick data and photometry recordings were simultaneously obtained; licking behaviour was detected by a capacity-based sensor. Latency to reward-anticipatory licking was calculated as the time between the CS and lick onset. The lick proportion was calculated as the percent time mice spent licking during CS presentation divided by the percent time mice spent licking during the rest of the session (without CS). […] Fiber photometry recordings were analyzed using custom-written Matlab scripts. […] Change in fluorescence, ΔF/F0 (%), was defined as (F-F0)/F0 x 100, where F represents the fluorescent signal (465-nm) at each time point. F0 was calculated by applying a least-squares linear fit (polyfit) to the 405-nm signal to align with the 465-nm signal. […]"}, "[1]": {"conditions": "ref Svensson et al 2019; Meltzer et al., 2019; Rajagopal et al., 2024; cited from earlier work"}, "[2]": {"target": "T1, mouse DA transporter (DAT) (Mus musculus, UniProt Q61327)", "T1 construct": "Lack of DETQ effect on the endogenous DA transporter; from tissue; host or cells: mouse striatal brain slices", "assay": "Fast-scan cyclic voltammetry of DA release in striatal slices", "conditions": "bath application: DETQ 200 nM; cocaine 5 µM", "procedure": "Striatal DA release was measured using fast-scan cyclic voltammetry (FSCV) with a carbon fiber electrode (CFE; diameter 7 µm, length 50–100 µm) positioned approximately 100 µm below the surface of the slice. The CFE was scanned across a triangular waveform (−0.4 to +1.3 V, 400 V/s) at 10 Hz, and DA release was evoked by single-pulse electrical stimulation (30 µA, 0.5 ms) with an inter-stimulus interval of 180 s. DA release was evoked in the presence of DHBE (1 µM) to block nicotinic acetylcholine receptors. Peak background-subtracted DA oxidation current was measured at +0.6 V, and drugs were washed on after establishing a stable baseline."}, "Open field behavior": {"assay": "Open field behavior", "assay_type": "in vivo, mouse", "conditions": "untethered mice, 45 min; DETQ 3, 10, 30 mg/kg i.p.; cocaine 20 mg/kg", "procedure": "For combined locomotion/photometry experiments in the open field (OF) in tethered mice, a 50 × 50 cm arena was used. Fiber photometry was conducted using a Doric photometry rig combined with a filter/mirror minicube set (Doric Lenses), as above. […] Data were sampled at 122 Hz. […] Mice were habituated to the chamber for 3 consecutive days (30 minutes per day). On experimental days, locomotor activity was video recorded and synchronized with fiber photometry signal recording. The baseline DA signal was recorded for 20 minutes, then the mouse received i.p. injection of vehicle or DETQ (10 mg/kg) in interleaved sessions. Following injection, the DA signal was recorded for an additional 90 minutes. The OF chamber was cleaned with ethanol and water between mice. Recording sessions were repeated at 48 hours intervals. Mouse behavior as well as photometry signals were analyzed with a custom-written MATLAB script. Mouse locomotion was computed using the body center point of the animal. The center zone of the arena was defined automatically during behavior data analysis as the 25 × 25 cm square with the central point aligned to the center of the open field. The distance moved and time spent in the center zone were quantified in 10 minutes time bins and as the total during the 90 minutes after ip injections. To test the dose-dependent effects of DETQ on locomotion in untethered mice, mice were injected i.p. with vehicle, DETQ (3, 10 or 30 mg/kg) or cocaine (20 mg/kg) while their locomotor activity was recorded in an OF arena (60 x 60 cm) for 45 min. Videos were recorded with a Logitech C270 camera and analyzed with DeepLabCut (version 2.1.8.2)[84] on an existing open field network. Representative traces were generated with the Anymaze (v7.2) software (Stoelting Co.)."}, "AlloLite-ctr": {"system": "AlloLite-ctr", "assay": "In vivo photometry of AlloLite-ctr in NAc", "design": "species or system mouse", "conditions": "cocaine 20 mg/kg", "procedure": "Fiber photometry combined with optogenetics was conducted using a RZ10X LUX-I/O Processor with integrated LEDs (Tucker-Davis Technologies) combined with a filter/mirror minicube set (FMC6_IE(400-410)_E1(467-497)_F1(507-554)_E2(566-586)_F2(600-680)_S) (Doric Lenses). […] Low-autofluorescence patch cords (400 µm/0.57 NA, Doric) were attached to the optic fibers (400 µm/0.66 NA, Doric) on the mouse’s head to collect fluorescence emissions. Signals were filtered through 500–540 nm GFP emission filters coupled to a photodetector on the RZ10X. […] Data were sampled at 1017.3 Hz. […] For optogenetic stimulation, a 635 nm LED was passed through the 580–680 nm minicube F2 port and reached the mouse through the same unique optic fiber; the LED was driven at 1 to 3 mW. To determine the ‘temporal window for stable imaging’ in the PFC using dLight1.3b recordings, DAT^IREScre mice expressing ChrimsonR in VTA DA axons and dLight1.3b in the PFC were injected i.p. with vehicle at 0 min, followed by DETQ (10 mg/kg) 25 min later. […] DA release was measured with fiber photometry. […] After each injection, NAc DA axons were optically (opto) activated across 3 trials (2 s, 20 Hz, 20-ms pulses) every 5 min and DA released measured with fiber photometry. […] After each injection, NAc DA axons were optically (opto) inhibited (10 s, continuous trials) every 3 min (8 trials/condition) and DA released measured with fiber photometry. […] DA release was measured with fiber photometry.\nFor long-term recordings during optogenetic stimulation or chemogenetic inhibition linear fit was calculated across the entire recording or across the vehicle epoch; for event-related experiments fit was performed on fluorescent data obtained in the −60 to +60 s around opto events or −5 to −1 s around behavioral events. […] DA event-related responses were quantified by computing the value at the transient’s peak value and the AUC in the 0 to 10 s or 0 to 60 s period post-event onset. […]"}, "dLight1.3b": {"system": "dLight1.3b", "assay": "In vivo photometry of optogenetically-evoked DA release in PFC", "design": "species or system mouse", "conditions": "cocaine 20 mg/kg after DETQ 10 mg/kg", "procedure": "Fiber photometry combined with optogenetics was conducted using a RZ10X LUX-I/O Processor with integrated LEDs (Tucker-Davis Technologies) combined with a filter/mirror minicube set (FMC6_IE(400-410)_E1(467-497)_F1(507-554)_E2(566-586)_F2(600-680)_S) (Doric Lenses). […] Low-autofluorescence patch cords (400 µm/0.57 NA, Doric) were attached to the optic fibers (400 µm/0.66 NA, Doric) on the mouse’s head to collect fluorescence emissions. Signals were filtered through 500–540 nm GFP emission filters coupled to a photodetector on the RZ10X. […] Data were sampled at 1017.3 Hz. […] For optogenetic stimulation, a 635 nm LED was passed through the 580–680 nm minicube F2 port and reached the mouse through the same unique optic fiber; the LED was driven at 1 to 3 mW. To determine the ‘temporal window for stable imaging’ in the PFC using dLight1.3b recordings, DAT^IREScre mice expressing ChrimsonR in VTA DA axons and dLight1.3b in the PFC were injected i.p. with vehicle at 0 min, followed by DETQ (10 mg/kg) 25 min later. After each injection, PFC DA axons were optically (opto) activated across 5 trials (2 s, 20 Hz, 20-ms pulses) for the vehicle (20 min) and […] for DETQ (1h05 min) every 5 min. DA release was measured with fiber photometry. In another session, the same mice were injected with Veh, then DETQ (10 mg/kg) 20 min later, then cocaine (20 mg/kg) 25 min later, and the same optogenetic protocol was applied (2 s, 20 Hz, 20-ms pulses every 5 min). For optogenetic validation of AlloLite-ctr in the NAc, DAT^IREScre mice expressing ChrimsonR in VTA DA axons were injected i.p. with vehicle (Day 1) or DETQ (10 mg/kg) (Day 8) at 0 min, followed by cocaine (20 mg/kg) 20 min later. After each injection, NAc DA axons were optically (opto) activated across 3 trials (2 s, 20 Hz, 20-ms pulses) every 5 min and DA released measured with fiber photometry. […] After each injection, NAc DA axons were optically (opto) inhibited (10 s, continuous trials) every 3 min (8 trials/condition) and DA released measured with fiber photometry. […] DA release was measured with fiber photometry.\nFor long-term recordings during optogenetic stimulation or chemogenetic inhibition linear fit was calculated across the entire recording or across the vehicle epoch; for event-related experiments fit was performed on fluorescent data obtained in the −60 to +60 s around opto events or −5 to −1 s around behavioral events. […] DA event-related responses were quantified by computing the value at the transient’s peak value and the AUC in the 0 to 10 s or 0 to 60 s period post-event onset. […] The maximal peak value of Veh-normalized ΔF/F0 after opto-onset was plotted over time and the plateau of maximal response was determined by averaging peak opto responses 5, 10, 15 and 20 min post-DETQ. […]"}, "hM4Di in VTA DA neurons": {"target": "T2, hM4Di in VTA DA neurons (Homo sapiens, UniProt P08173, A203G/Y113C)", "T2 construct": "mCherry; expressed in transfected cells; host or cells: VTA dopamine neurons of DAT-IRES-cre mice, Cre-dependent AAV5", "T2 sequence (P08173 whole entry Y113C/A203G)": "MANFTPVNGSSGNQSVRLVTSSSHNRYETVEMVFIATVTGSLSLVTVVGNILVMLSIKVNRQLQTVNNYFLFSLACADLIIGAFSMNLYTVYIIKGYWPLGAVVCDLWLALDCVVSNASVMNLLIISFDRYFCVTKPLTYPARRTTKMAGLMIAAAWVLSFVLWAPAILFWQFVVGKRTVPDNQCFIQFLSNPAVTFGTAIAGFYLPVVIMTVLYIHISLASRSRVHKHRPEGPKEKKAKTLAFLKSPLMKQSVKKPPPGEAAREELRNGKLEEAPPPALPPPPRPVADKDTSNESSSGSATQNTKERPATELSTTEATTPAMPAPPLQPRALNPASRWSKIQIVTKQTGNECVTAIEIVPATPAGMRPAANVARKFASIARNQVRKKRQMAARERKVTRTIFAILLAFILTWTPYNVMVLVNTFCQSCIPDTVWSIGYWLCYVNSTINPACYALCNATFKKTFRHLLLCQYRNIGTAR", "assay": "Chemogenetic inhibition of VTA DA neurons with NAc dLight1.3b photometry", "assay_type": "in vivo, mouse", "conditions": "J60 0.2 or 1 mg/kg, 10 minutes after DETQ", "procedure": "Fiber photometry combined with optogenetics was conducted using a RZ10X LUX-I/O Processor with integrated LEDs (Tucker-Davis Technologies) combined with a filter/mirror minicube set (FMC6_IE(400-410)_E1(467-497)_F1(507-554)_E2(566-586)_F2(600-680)_S) (Doric Lenses). […] Low-autofluorescence patch cords (400 µm/0.57 NA, Doric) were attached to the optic fibers (400 µm/0.66 NA, Doric) on the mouse’s head to collect fluorescence emissions. Signals were filtered through 500–540 nm GFP emission filters coupled to a photodetector on the RZ10X. […] Data were sampled at 1017.3 Hz. […] DA release was measured with fiber photometry. […] After each injection, NAc DA axons were optically (opto) activated across 3 trials (2 s, 20 Hz, 20-ms pulses) every 5 min and DA released measured with fiber photometry. […] After each injection, NAc DA axons were optically (opto) inhibited (10 s, continuous trials) every 3 min (8 trials/condition) and DA released measured with fiber photometry. […] DA release was measured with fiber photometry.\nFor long-term recordings during optogenetic stimulation or chemogenetic inhibition linear fit was calculated across the entire recording or across the vehicle epoch; for event-related experiments fit was performed on fluorescent data obtained in the −60 to +60 s around opto events or −5 to −1 s around behavioral events. […]"}},
  "data": [
    {"smiles": "CN1CCc2cc(Cl)c(O)cc2[C@@H](c2ccccc2)C1", "note": "[SCH-23390]", "values": [
      {"measurement": "footshock-induced activity in NAc DRD1-MSNs", "setting": "NAc DRD1-MSNs", "value": "reduces"},
      {"measurement": "behavioral effect of DETQ in hD1 mice", "setting": "[1]", "value": "blocked"}
    ]},
    {"smiles": "COC(=O)[C@H]1[C@@H](OC(=O)c2ccccc2)C[C@@H]2CC[C@H]1N2C", "note": "[cocaine]", "values": [
      {"measurement": "decay constant (tau) of DA signals", "setting": "[2]", "value": "slowed the decay"},
      {"measurement": "peak DA release", "setting": "[2]", "value": "significantly increased"},
      {"measurement": "locomotion in open field", "setting": "Open field behavior", "value": "increase"},
      {"measurement": "decay time of opto-evoked DA peaks", "setting": "AlloLite-ctr", "value": "increased decay time"},
      {"measurement": "baseline fluorescence of the sensor after DETQ", "setting": "dLight1.3b", "value": "further boosted"}
    ]},
    {"smiles": "CCN1CCN(C2=Nc3cc(Cl)ccc3Nc3c(F)cccc32)CC1", "note": "[J60]", "values": [
      {"measurement": "step-like increase in dLight1.3b baseline signal observed with DETQ", "setting": "hM4Di in VTA DA neurons", "value": "dose-dependently decreased"}
    ]}
  ]
}
